From patent US20200085776A1, “Methods of Reducing C-Reactive Protein and/or Treating Cardiovascular Disease” (CARDAX, INC., priority 2018, published 2020)

Tested on: C-reactive protein (CRP)
Assay: CRP (hs-CRP) in blood, CHASE clinical study
Assay type: in vivo, human
Conditions: Group X 12 mg BID
Excerpt: This is a two-part study comprising Part I and Part II. Following screening, Part I consists of a randomized, double-blind, placebo controlled dosing period of up to 12 weeks. The study shall be conducted at one or more study sites in Hawaii. Approximately 360 subjects qualified after completion of screening procedures shall be randomized in a 1:1:1 ratio to one of three treatment groups, per Table 1.
The Part I 12-week double-blind dosing period commences with V2, including randomization and first dose of study product, and continues with study visits at Week 1-2 (V3), Week 4 (V4), Week 8 (V5), and Week 12 (V6). V6 procedures will conclude Part I.
Blood shall be obtained at each visit for CRP. The screening specimen shall be processed at the local lab and reported to the study staff for eligibility determination; CRP samples at V7 and V8 may also be processed locally and reported directly to study staff. Samples for CRP from V2 through V6 may be batched, processed, and reported as specified in the Laboratory Manual.
At each these visits, blood was obtained for measurement of CRP, among other parameters. Table 7A provides a summary of the CRP measurements (mg/L) at each visit and Table 7B provides a summary of the differences of CRP levels between V2 and V6.

[1] = V1 screening, subjects with baseline level greater than 2.0
[2] = V2 baseline pre-dose, all subjects
[3] = V2 baseline pre-dose, subjects not taking a hypertension agent
[4] = V2 baseline pre-dose, subjects not taking any cardiac therapeutic agent
[5] = V2 baseline pre-dose, subjects not taking statins
[6] = V2 baseline pre-dose, subjects taking an anti-diabetic agent
[7] = V2 baseline pre-dose, subjects with CAD
[8] = V2 baseline pre-dose, subjects with DM2, hypertension and hyperlipidemia but not CAD
[9] = V2 baseline pre-dose, subjects with Diabetes Mellitus Type II
[10] = V2 baseline pre-dose, subjects with baseline level greater than 2.0
[11] = V2 baseline pre-dose, subjects with hyperlipidemia
[12] = V3 Week 1-2, subjects with baseline level greater than 2.0
[13] = V4 Week 4, subjects with baseline level greater than 2.0
[14] = V5 Week 8, subjects with baseline level greater than 2.0
[15] = V6 Week 12, subjects not taking a hypertension agent
[16] = V6 Week 12, subjects not taking any cardiac therapeutic agent
[17] = V6 Week 12, subjects not taking statins
[18] = V6 Week 12, subjects taking an anti-diabetic agent

With `CC1=C(/C=C/C(C)=C/C=C/C(C)=C/C=C/C=C(C)/C=C/C=C(C)/C=C/C2=C(C)C(=O)C(O)CC2(C)C)C(C)(C)CC(O)C1=O` (stereo not drawn) [Astaxanthin, astaxanthin] the “CRP Max” value (V1 screening, all subjects) was 15.96 mg/L, the “CRP Mean (SD)” value (V1 screening, all subjects) was 5.43 (3.91) mg/L and the “CRP Median” value (V1 screening, all subjects) was 3.95 mg/L. For the same molecule, the “CRP Min” value (V1 screening, all subjects) was 2.87 mg/L, the “CRP Max” value [1] was 15.96 mg/L and the “CRP Mean (SD)” value [1] was 5.64 (4.06) mg/L. The “CRP Median” value [1] was 3.98 mg/L, the “CRP Min” value [1] was 2.87 mg/L and the “CRP Max” value [2] was 17.86 mg/L. For the same molecule, the “CRP Mean (SD)” value [2] was 5.52 (4.80) mg/L, the “CRP Median” value [2] was 3.64 mg/L and the “CRP Min” value [2] was 1.39 mg/L. The “CRP Max” value [3] was 3.64, 3.64 mg/L, the “CRP Mean (SD)” value [3] was 3.64 mg/L and the “CRP Median” value [3] was 3.64 mg/L. For the same molecule, the “CRP Min” value [3] was 3.64, 3.64 mg/L, the “CRP Max” value [4] was 17.86 mg/L and the “CRP Mean (SD)” value [4] was 6.81 (6.86) mg/L. For the same molecule, the “CRP Median” value [4] was 3.64 mg/L, the “CRP Min” value [4] was 1.39 mg/L and the “CRP Max” value [5] was 8.61 mg/L. The “CRP Mean (SD)” value [5] was 4.04 (2.48) mg/L, the “CRP Median” value [5] was 3.12 mg/L and the “CRP Min” value [5] was 2.16 mg/L. The “CRP Max” value [6] was 17.86 mg/L, the “CRP Mean (SD)” value [6] was 7.52 (5.87) mg/L and the “CRP Median” value [6] was 6.78 mg/L. For the same molecule, the “CRP Min” value [6] was 1.39 mg/L, the “CRP Max” value [7] was 8.61, 8.61 mg/L and the “CRP Mean (SD)” value [7] was 8.61 mg/L. For the same molecule, the “CRP Median” value [7] was 8.61 mg/L, the “CRP Min” value [7] was 8.61, 8.61 mg/L and the “CRP Max” value [8] was 17.86 mg/L. The “CRP Mean (SD)” value [8] was 7.30 (6.54) mg/L, the “CRP Median” value [8] was 4.94 mg/L and the “CRP Min” value [8] was 1.39 mg/L. For the same molecule, the “CRP Max” value [9] was 17.86 mg/L, the “CRP Mean (SD)” value [9] was 7.52 (5.87) mg/L and the “CRP Median” value [9] was 6.78 mg/L. The “CRP Min” value [9] was 1.39 mg/L, the “CRP Max” value [10] was 17.86 mg/L and the “CRP Mean (SD)” value [10] was 5.93 (4.85) mg/L. The “CRP Median” value [10] was 4.29 mg/L, the “CRP Min” value [10] was 2.16 mg/L and the “CRP Max” value [11] was 17.86 mg/L. The “CRP Mean (SD)” value [11] was 6.71 (5.19) mg/L, the “CRP Median” value [11] was 4.95 mg/L and the “CRP Min” value [11] was 1.39 mg/L. The “CRP Max” value (V3 Week 1-2, all subjects) was 6.72 mg/L, the “CRP Mean (SD)” value (V3 Week 1-2, all subjects) was 3.72 (2.06) mg/L and the “CRP Median” value (V3 Week 1-2, all subjects) was 3.44 mg/L. The “CRP Min” value (V3 Week 1-2, all subjects) was 0.44 mg/L, the “CRP Max” value [12] was 6.72 mg/L and the “CRP Mean (SD)” value [12] was 3.97 (1.97) mg/L. For the same molecule, the “CRP Median” value [12] was 3.55 mg/L, the “CRP Min” value [12] was 0.44 mg/L and the “CRP Max” value (V4 Week 4, all subjects) was 15.83 mg/L. For the same molecule, the “CRP Mean (SD)” value (V4 Week 4, all subjects) was 3.98 (4.24) mg/L, the “CRP Median” value (V4 Week 4, all subjects) was 2.56 mg/L and the “CRP Min” value (V4 Week 4, all subjects) was 0.56 mg/L. The “CRP Max” value [13] was 15.83 mg/L, the “CRP Mean (SD)” value [13] was 4.22 (4.39) mg/L and the “CRP Median” value [13] was 3.27 mg/L. The “CRP Min” value [13] was 0.56 mg/L, the “CRP Max” value (V5 Week 8, all subjects) was 18.24 mg/L and the “CRP Mean (SD)” value (V5 Week 8, all subjects) was 4.90 (4.99) mg/L. For the same molecule, the “CRP Median” value (V5 Week 8, all subjects) was 3.71 mg/L, the “CRP Min” value (V5 Week 8, all subjects) was 1.06 mg/L and the “CRP Max” value [14] was 18.24 mg/L. The “CRP Mean (SD)” value [14] was 5.29 (5.09) mg/L, the “CRP Median” value [14] was 4.08 mg/L and the “CRP Min” value [14] was 1.06 mg/L. The “CRP Max” value (V6 Week 12, all subjects) was 11.04 mg/L, the “CRP Mean (SD)” value (V6 Week 12, all subjects) was 3.45 (3.09) mg/L and the “CRP Median” value (V6 Week 12, all subjects) was 2.70 mg/L. For the same molecule, the “CRP Min” value (V6 Week 12, all subjects) was 0.22 mg/L, the “CRP Max” value [15] was 2.70, 2.70 mg/L and the “CRP Mean (SD)” value [15] was 2.70 mg/L. For the same molecule, the “CRP Median” value [15] was 2.70 mg/L, the “CRP Min” value [15] was 2.70, 2.70 mg/L and the “CRP Max” value [16] was 6.80 mg/L. The “CRP Mean (SD)” value [16] was 2.53 (2.56) mg/L, the “CRP Median” value [16] was 1.91 mg/L and the “CRP Min” value [16] was 0.22 mg/L. For the same molecule, the “CRP Max” value [17] was 11.04 mg/L, the “CRP Mean (SD)” value [17] was 3.86 (3.78) mg/L and the “CRP Median” value [17] was 2.71 mg/L. The “CRP Min” value [17] was 0.22 mg/L, the “CRP Max” value [18] was 6.80 mg/L and the “CRP Mean (SD)” value [18] was 2.91 (2.07) mg/L. The “CRP Median” value [18] was 2.32 mg/L, the “CRP Min” value [18] was 1.02 mg/L and the “CRP Max” value (V6 Week 12, subjects with CAD) was 2.72, 2.72 mg/L. For the same molecule, the “CRP Mean (SD)” value (V6 Week 12, subjects with CAD) was 2.72 mg/L, the “CRP Median” value (V6 Week 12, subjects with CAD) was 2.72 mg/L and the “CRP Min” value (V6 Week 12, subjects with CAD) was 2.72, 2.72 mg/L.
